Patent publication US10548865B1, “Compositions of citrulline” (Hubei Grand Biotechnology Co. Ltd., priority 2019, dated 2020)

System: mice
Experiment: Loaded swimming test, exercise time to exhaustion
Assay type: in vivo
Conditions: intragastric, 1 hour prior to test
Description: Adult (8-10 weeks) male ICR mice were used in this study and purchased from Beijing Vital River Laboratory Animal Technology Co., Ltd. All the mice were provided with a normal diet and water ad libitum. All procedures were approved by institutional guidelines and the Animal Care and Use Committee (Huazhong University of Science and Technology, Wuhan, China) of the university's animal core facility. The mice were group-housed under a 12 h light-dark cycle (lights on at 8:00 a.m.), at consistent humidity (50±5%), and ambient temperature (22˜24° C.).
The animals were bred with three mice per cage in the laboratory, and were acclimatized for 1 week before the experiments. The mice were grouped randomly for each experiment. The mice in each group were given the corresponding dose amino acid and the control group was treated with the equal volume of normal saline (NS) through intragastric administration. Loaded swimming experiments were performed to assess the acute effect of the amino acids on endurance one hour after the treatment
The NS injection were purchased from Beijing Pharmaceutical Group Co., Ltd. The amino acid powders were dissolved in NS and then were intragastric administration to mice by lavage needle (Beijing Vital River Laboratory Animal Technology Co., Ltd.).
Acute effects on endurance performance were assessed by loaded swimming test one hour after the amino acid treatment. The swimming exercise was carried out in a tank (diameter 120 cm) filled with fresh water to 30-cm depth at 24±2° C. A tin wire (⅛ of body weight) was attached on the tail of the mouse. […] The length of time each mouse kept swimming before exhaustion (exercise time to exhaustion) was recorded. At the end of the session, the mice were removed from the water, dried with paper towels, and placed back in their home cages.
Sixty mice were randomly divided into four groups (n=15 per group). Each of the four group were treated with NS, citrulline (200 mg/kg body weight), GABA (150 mg/kg body weight), and citrulline/GABA mixture (200 mg/kg+150 mg/kg) respectively. The results were summarized below (Table 2 and FIG. 1).
The methods used here are the same as in Example 1, but GABA (150 mg/kg) was replaced by taurine (200 mg/kg). The results were summarized below (Table 3 and FIG. 2).
The methods used here are the same as in Example 1. Sixty mice were randomly divided into four groups (n=15 per group). Each of the four group were treated with NS, citrulline (75 mg/kg body weight), taurine (25 mg/kg body weight), and citrulline taurine mixture (75 mg/kg+25 mg/kg) respectively. The results were summarized below (Table 4 and FIG. 3).

[1] = Example 1, citrulline 200 mg/kg, GABA 150 mg/kg, mixture 200 mg/kg+150 mg/kg, male ICR mice
[2] = Example 2, citrulline 200 mg/kg, taurine 200 mg/kg, mixture 200 mg/kg+200 mg/kg
[3] = Example 3, lower doses, citrulline 75 mg/kg, taurine 25 mg/kg, mixture 75 mg/kg+25 mg/kg

Structure (SMILES)	Average Time (s), exercise time to exhaustion [1] [s]	Average Time (s), exercise time to exhaustion (Example 1, citrulline 200 mg/kg, GABA 150 mg/kg, mixture 200 mg/kg+150 mg/kg, male ICR mice, listed as citrulline)	Average Time (s), exercise time to exhaustion [2] [s]	Increase of exercise time to exhaustion vs control [2] [%]	Increase of exercise time to exhaustion vs control (Example 2, citrulline 200 mg/kg, taurine 200 mg/kg, mixture 200 mg/kg+200 mg/kg, listed as citrulline) [%]	Average Time (s), exercise time to exhaustion [3] [s]	Increase of exercise time to exhaustion vs control [3] [%]	Increase of exercise time to exhaustion vs control (Example 3, lower doses, citrulline 75 mg/kg, taurine 25 mg/kg, mixture 75 mg/kg+25 mg/kg, listed as citrulline) [%]	Increase of exercise time to exhaustion vs control (Example 2, citrulline 200 mg/kg, taurine 200 mg/kg, mixture 200 mg/kg+200 mg/kg, listed as taurine) [%]	Increase of exercise time to exhaustion vs control (Example 3, lower doses, citrulline 75 mg/kg, taurine 25 mg/kg, mixture 75 mg/kg+25 mg/kg, listed as taurine) [%]
NC(=O)NCCC[C@H](N)C(=O)O [Citrulline, L-citrulline]	245.4	about 245.4 s	194.6	15.6	15.6	207.7	23.4	23.4		
NCCCC(=O)O [GABA, gamma-aminobutyric acid, reference compound]	216.8									
NCCS(=O)(=O)O [Taurine, taurine]			208	23.6		181	7.5		23.6	7.5
